In patent publication US20190111059A1, “COMPOSITIONS AND METHODS FOR TREATING AUTISM SPECTRUM DISORDER” (Marinus Pharmaceuticals, Inc., priority 2017, published 2019):
Entries after “also recorded” stand apart in the source; their conditions may differ. Counter-ions that a name gives are not always drawn.

Experiments:
[1] = tested on: children with ASD who were positive for at least one FRAA; test: Controlled open-label study of high-dose folinic acid (Example 1); format: in vivo, human; settings: 2 mg kg^−1 per day in two divided doses, maximum 50 mg per day
[2] = tested on: children with non-syndromic autism spectrum disorder (ASD) and language impairment; test: Randomized placebo-controlled trial: Social Responsiveness Scale (SRS); format: in vivo, human; settings: lower = less social symptoms
Excerpt: The Social Responsiveness Scale (“SRS”) is a 65-item questionnaire that measures social skills across five domains: Social Awareness (8 items, meaningful change 7.1), Social Cognition (12 items, meaningful change 5.8), Social Communication (22 items, meaningful change 4.2), Social Motivation (11 items, meaningful change 5.7), Autistic Mannerisms (12 items, meaningful change 5.5) and total (65 items). Each item is rated 0 to 3 with higher scores indicating greater severity. Standardized T-scores (mean 50, standard deviation 10) range 30-90. This two-arm double-blind randomized placebo-controlled parallel study with a 1:1 allocation was performed at Arkansas Children's Research Institute (Little Rock, Ark., USA) from 4 Jun. 2012 to 22 Nov. 2013. Parent and teacher questionnaires were requested at baseline and 6 and 12 weeks after starting treatment. Parents were asked to deliver baseline questionnaires to teachers or therapists. After the first visit, questionnaires were mailed to the parents and teachers at least 1 week prior to the target date of completion. Parents were asked to bring the completed teacher and parent 12-week questionnaires to the final assessment. Other questionnaires were returned in a preaddressed postage-paid envelope. The target dose of the intervention (INN: DL folinic acid calcium salt; USAN: leucovorin calcium) was 2 mg kg^−1 per day (maximum 50 mg per day) in two equally divided doses with half of the target dose given during the first 2 weeks. Dye-free, milk-product-free, vegetarian capsules were provided in three strengths (5, 10 and 25 mg) by Lee Silsby Compounding Pharmacy (Cleveland Heights, Ohio, USA). Certificate of analysis was provided for each capsule strength by an independent analytical service (Eagle Analytical Services, Houston, Tex., USA) for each batch of capsules produced. In all cases, potency was at least 99%. Secondary outcomes. Secondary outcome measures included the Ohio Autism Clinical Impression Scale (OACIS), Vineland Adaptive Behavior Scale 2nd Edition (VABS) Survey Interview Form and several questionnaires. Parents and teachers were asked to complete the Aberrant Behavior Checklist (ABC), Social Responsiveness Scale (SRS) and Behavioral Assessment System for Children 2nd Edition (BASC). Only parents were asked to complete the Autism Impact Measure (AIM) and Autism Symptoms Questionnaire (ASQ). Secondary outcome measures were analyzed using the mixed-model regression. Because of the large number of secondary outcomes, correction for multiple comparisons was conducted using the false discovery rate.

[3] = tested on: children with non-syndromic autism spectrum disorder (ASD) and language impairment; test: Randomized placebo-controlled trial: adverse effects monitoring; format: in vivo, human
Excerpt: Adverse events were monitored every 3 weeks using a modification of the Dosage Record Treatment Emergent Symptom Scale. Adverse events were considered related to the treatment if they started or worsened following the start of the trial. If adverse events were persistent or severe, the parents were offered the option of halving the dose or discontinuing the intervention. The dose could only be reduced once and was never increased if reduced.
The total number of patients reporting each adverse event was compared across treatment groups using a Fisher exact test. Adverse events that were possibly, probably or definitely related to the treatments were analyzed.

[4] = tested on: children with ASD and low CSF folate concentrations; settings: high-dose; case reports and series; cited from earlier work
[5] = cited from earlier work
[6] = vs placebo, mixed-model regression
[7] = folinic acid group n = 21, 12 weeks

Nc1nc2c(c(=O)[nH]1)N(C=O)C(CNc1ccc(C(=O)N[C@@H](CCC(=O)O)C(=O)O)cc1)CN2 (mixture of isomers) [Folinic acid, DL folinic acid calcium salt]
Adverse effects [1]: very few adverse effects reported
Improvements in verbal communication, receptive and expressive language, attention, and stereotypical behavior [1]: significant improvements
SRS Motivation, 12-week assessment mean ([2]; 2 mg kg^−1 per day, 12 weeks, baseline 75.5): 70.3 T-Scores
SRS Awareness, 12-week assessment mean ([2]; 2 mg kg^−1 per day, 12 weeks, baseline 79.2): 78.7 T-Scores
SRS Communication, 12-week assessment mean ([2]; 2 mg kg^−1 per day, 12 weeks, baseline 82.5): 80.1 T-Scores
SRS Mannerisms, 12-week assessment mean ([2]; 2 mg kg^−1 per day, 12 weeks, baseline 83.4): 80.5 T-Scores
SRS Cognition, 12-week assessment mean ([2]; 2 mg kg^−1 per day, 12 weeks, baseline 83.7): 79.3 T-Scores
SRS Total, 12-week assessment mean ([2]; 2 mg kg^−1 per day, 12 weeks, baseline 84.9): 82.2 T-Scores
SRS Awareness, estimated effect [2, 6]: 0.3 T-Scores
SRS Cognition, estimated effect [2, 6]: 0.8 T-Scores
SRS Communication, estimated effect [2, 6]: 1.5 T-Scores
SRS Mannerisms, estimated effect [2, 6]: 0.9 T-Scores
SRS Motivation, estimated effect [2, 6]: 0.2 T-Scores
SRS Total, estimated effect [2, 6]: 0.8 T-Scores
Adverse effects, difference between treatment groups (folinic acid vs placebo) ([3]; 2 mg kg^−1 per day, 12 weeks, Fisher exact test, calcium salt): no significant difference; also recorded: no significant group differences
Aggression, incidence [3, 7]: (10%)
Any adverse effect, incidence [3, 7]: (57%)
Blurred vision, incidence [3, 7]: (0%)
Confusion, incidence [3, 7]: (5%)
Constipation, incidence [3, 7]: (10%)
Decreased appetite, incidence [3, 7]: (10%)
Decreased motor activity, incidence [3, 7]: (0%)
Depression, incidence [3, 7]: (5%)
Diarrhea, incidence [3, 7]: (5%)
Dizziness, incidence [3, 7]: (0%)
Drowsiness, incidence [3, 7]: (0%)
Dry mouth, excessive thirst, incidence [3, 7]: (14%)
Emotional lability, incidence [3, 7]: (5%)
Excitement or agitation, incidence [3, 7]: (29%)
Gastroesophageal reflux, incidence [3, 7]: (5%)
Headache, incidence [3, 7]: (10%)
Increased motor activity, incidence [3, 7]: (29%)
Increased salivation, incidence [3, 7]: (0%)
Increased tantrums, incidence [3, 7]: (5%)
Insomnia, incidence [3, 7]: (29%)
Involuntary movements, incidence [3, 7]: (10%)
Nasal congestion, incidence [3, 7]: (0%)
Nausea/vomiting, incidence [3, 7]: (0%)
Rash, incidence [3, 7]: (0%)
Restlessness, incidence [3, 7]: (14%)
Stiffness, incidence [3, 7]: (5%)
Sweating, incidence [3, 7]: (0%)
Tremors, incidence [3, 7]: (0%)
Weight gain, incidence [3, 7]: (10%)
Weight loss, incidence [3, 7]: (5%)
Serious adverse events ([3]; folinic acid group, 2 mg kg^−1 per day, 12 weeks): no serious adverse events
Symptoms in children with ASD and low CSF folate concentrations [4]: markedly improves symptoms
Absorption following oral administration [5]: rapidly absorbed
